In brackets after ≈: the same amount, converted by molar mass. Activity calls are given as the source filed them. The rule behind the calls is not given here.
Columns and labels:
Klebsiella pneumoniae [1] = experiment: Antibacterial activity against ESBL-negative Klebsiella pneumoniae isolate 106 at 1 ug/ml by Etest; format: functional, organism-based
Klebsiella pneumoniae [2] = experiment: Antibacterial activity against ESBL-negative Klebsiella pneumoniae isolate 113 at 1 ug/ml by Etest; format: functional, organism-based
Klebsiella pneumoniae [3] = experiment: Antibacterial activity against ESBL-negative Klebsiella pneumoniae isolate 114 at 1 ug/ml by Etest; format: functional, organism-based
Klebsiella pneumoniae [4] = experiment: Antibacterial activity against ESBL-negative Klebsiella pneumoniae isolate 102 at 1 ug/ml by Etest; format: functional, organism-based
Klebsiella pneumoniae [5] = experiment: Antibacterial activity against ESBL-positive Klebsiella pneumoniae isolate 110 having upstream IS26 insertion by Etest; format: functional
Klebsiella pneumoniae [6] = experiment: Antibacterial activity against ESBL-negative Klebsiella pneumoniae isolate 102 by Etest; format: functional
Klebsiella pneumoniae [7] = experiment: Antibacterial activity against ESBL-positive Klebsiella pneumoniae isolate 121 having upstream IS26 insertion by Etest; format: functional
Klebsiella pneumoniae [8] = experiment: Antibacterial activity against ESBL-negative Klebsiella pneumoniae isolate 104 by Etest; format: functional
Klebsiella pneumoniae [9] = experiment: Antibacterial activity against ESBL-positive Klebsiella pneumoniae isolate 119 having blaSHV promoter sequence with IS26 insertion by Etest; format: functional
Klebsiella pneumoniae [10] = experiment: Antibacterial activity against ESBL-negative Klebsiella pneumoniae isolate 105 by Etest; format: functional
Klebsiella pneumoniae [11] = experiment: Antibacterial activity against ESBL-positive Klebsiella pneumoniae isolate K2 having blaSHV promoter sequence with IS26 insertion by Etest; format: functional
Klebsiella pneumoniae [12] = experiment: Antibacterial activity against ESBL-negative Klebsiella pneumoniae isolate 107 by Etest; format: functional
Klebsiella pneumoniae [13] = experiment: Antibacterial activity against ESBL-positive Klebsiella pneumoniae isolate 120 having upstream IS26 insertion by Etest; format: functional
Klebsiella pneumoniae [14] = experiment: Antibacterial activity against ESBL-negative Klebsiella pneumoniae isolate 114 by Etest; format: functional
Klebsiella pneumoniae [15] = experiment: Antibacterial activity against ESBL-negative Klebsiella pneumoniae isolate 30 by Etest; format: functional
Klebsiella pneumoniae [16] = experiment: Antibacterial activity against ESBL-negative Klebsiella pneumoniae isolate M1 by Etest; format: functional
Klebsiella pneumoniae [17] = experiment: Antibacterial activity against ESBL-negative Klebsiella pneumoniae isolate 106 by Etest; format: functional
Klebsiella pneumoniae [18] = experiment: Antibacterial activity against ESBL-negative Klebsiella pneumoniae isolate 115 by Etest; format: functional
Klebsiella pneumoniae [19] = experiment: Antibacterial activity against ESBL-negative Klebsiella pneumoniae isolate 116 by Etest; format: functional
Klebsiella pneumoniae [20] = experiment: Antibacterial activity against ESBL-negative Klebsiella pneumoniae isolate 113 by Etest; format: functional
Klebsiella pneumoniae [21] = experiment: Antibacterial activity against ESBL-negative Klebsiella pneumoniae isolate 108 by Etest; format: functional
Klebsiella pneumoniae [22] = experiment: Antibacterial activity against ESBL-negative Klebsiella pneumoniae isolate 85 by Etest; format: functional
Klebsiella pneumoniae [23] = experiment: Antibacterial activity against ESBL-negative Klebsiella pneumoniae isolate 109 by Etest; format: functional
Klebsiella pneumoniae [24] = experiment: Antibacterial activity against ESBL-positive Klebsiella pneumoniae isolate J5 having blaSHV promoter sequence with IS26 insertion by Etest; format: functional
Klebsiella pneumoniae [25] = experiment: Antibacterial activity against ESBL-positive Klebsiella pneumoniae isolate J4 having blaSHV promoter sequence with IS26 insertion by Etest; format: functional

CC(C)(O/N=C(\C(=O)N[C@@H]1C(=O)N2C(C(=O)[O-])=C(C[n+]3ccccc3)CS[C@H]12)c1csc(N)n1)C(=O)O
Activity (Klebsiella pneumoniae [1]): Active | Activity (Klebsiella pneumoniae [2]): Active | Activity (Klebsiella pneumoniae [3]): Active | Activity (Klebsiella pneumoniae [4]): Active

CO/N=C(\C(=O)N[C@@H]1C(=O)N2C(C(=O)O)=C(COC(C)=O)CS[C@H]12)c1csc(N)n1 [CEFOTAXIME]
MIC (Klebsiella pneumoniae [5]): > 16 µg/mL | MIC (Klebsiella pneumoniae [6]): 3 µg/mL (≈ 6.59 µM) | MIC (Klebsiella pneumoniae [7]): > 16 µg/mL | MIC (Klebsiella pneumoniae [8]): 3 µg/mL (≈ 6.59 µM) | MIC (Klebsiella pneumoniae [9]): > 16 µg/mL | MIC (Klebsiella pneumoniae [10]): > 16 µg/mL | MIC (Klebsiella pneumoniae [11]): > 16 µg/mL | MIC (Klebsiella pneumoniae [12]): 0.5 µg/mL (≈ 1.1 µM) | MIC (Klebsiella pneumoniae [13]): > 16 µg/mL | MIC (Klebsiella pneumoniae [14]): > 16 µg/mL | MIC (Klebsiella pneumoniae [15]): > 16 µg/mL | MIC (Klebsiella pneumoniae [16]): 4 µg/mL (≈ 8.78 µM) | MIC (Klebsiella pneumoniae [17]): > 16 µg/mL | MIC (Klebsiella pneumoniae [18]): 8 µg/mL (≈ 17.6 µM) | MIC (Klebsiella pneumoniae [19]): > 16 µg/mL | MIC (Klebsiella pneumoniae [20]): > 16 µg/mL | MIC (Klebsiella pneumoniae [21]): 6 µg/mL (≈ 13.2 µM) | MIC (Klebsiella pneumoniae [22]): > 16 µg/mL | MIC (Klebsiella pneumoniae [23]): > 16 µg/mL | MIC (Klebsiella pneumoniae [24]): > 16 µg/mL | MIC (Klebsiella pneumoniae [25]): > 16 µg/mL
